Measurements taken from the supplement of paper PMC10307832.

How the values were obtained:
Experiment in all cases: relative viability (nuclei count vs DMSO), 5 days (fraction); higher = more cells survive
Mirin + AZD7762 = compound: N=C1NC(=O)/C(=C/c2ccc(O)cc2)S1 [Mirin] + NC(=O)Nc1cc(-c2cccc(F)c2)sc1C(=O)N[C@H]1CCCNC1 [AZD7762] (partner 0.2 µM)
Method in brief: (§1)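 Each reported value is a median over duplicate plates. It expresses relative viability: treated-well nuclei count divided by vehicle-well nuclei count. Lung cancer cell lines in 1536-well plates were dosed by pin tool a day after seeding, alone with one drug or with a fixed anchor-drug dose plus five library-drug doses (not always all listed) in √10 steps, and nuclei were counted after 5 days.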

[1] = compound: CCn1c(-c2nonc2N)nc2cnc(Oc3cccc(NC(=O)c4ccc(OCCN5CCOCC5)cc4)c3)cc21 + CC(=O)Nc1cccc(-n2c(=O)n(C3CC3)c(=O)c3c(Nc4ccc(I)cc4F)n(C)c(=O)c(C)c32)c1 [Trametinib] (partner 0.02 µM)
Method in brief: as §1

Mirin + Olaparib = compound: N=C1NC(=O)/C(=C/c2ccc(O)cc2)S1 [Mirin] + O=C(c1cc(Cc2n[nH]c(=O)c3ccccc23)ccc1F)N1CCN(C(=O)C2CC2)CC1 [Olaparib] (partner 8 µM)
Method in brief: as §1

[2] = compound: CCC1=CN=CN=C1N2CCN(CC2)CC3=NC4=C(N3)C=C(C=C4)C(F)(F)F + CC(=O)Nc1cccc(-n2c(=O)n(C3CC3)c(=O)c3c(Nc4ccc(I)cc4F)n(C)c(=O)c(C)c32)c1 [Trametinib] (partner 0.02 µM)
Method in brief: as §1

| Cell Line | relative viability (Mirin + AZD7762; first compound 0.25 µM) | relative viability (Mirin + AZD7762; first compound 0.7906 µM) | relative viability (Mirin + AZD7762; first compound 2.5 µM) | relative viability (Mirin + AZD7762; first compound 7.906 µM) | relative viability (Mirin + AZD7762; first compound 25 µM) | relative viability ([1]; first compound 0.04 µM) | relative viability ([1]; first compound 0.1265 µM) | relative viability ([1]; first compound 0.4 µM) | relative viability ([1]; first compound 1.265 µM) | relative viability ([1]; first compound 4 µM) | relative viability (Mirin + Olaparib; first compound 0.25 µM) | relative viability (Mirin + Olaparib; first compound 0.7906 µM) | relative viability (Mirin + Olaparib; first compound 2.5 µM) | relative viability (Mirin + Olaparib; first compound 7.906 µM) | relative viability (Mirin + Olaparib; first compound 25 µM) | relative viability ([2]; first compound 0.04 µM) | relative viability ([2]; first compound 0.1265 µM) | relative viability ([2]; first compound 0.4 µM) | relative viability ([2]; first compound 1.265 µM) | relative viability ([2]; first compound 4 µM) |
| --- | --- | --- | --- | --- | --- | --- | --- | --- | --- | --- | --- | --- | --- | --- | --- | --- | --- | --- | --- | --- |
| LC-2-ad | 0.836 | 0.812 | 0.825 | 0.933 | 0.817 | 0.991 | 0.952 | 0.983 | 0.712 | 0.623 | 0.743 | 0.757 | 0.706 | 0.784 | 0.733 | 0.976 | 0.814 | 0.938 | 0.921 | 0.871 |
| LCLC-97TM1 | 0.212 | – | 0.263 | – | 0.329 | 0.257 | 0.192 | – | 0.197 | 0.19 | 0.386 | 0.413 | 0.486 | 0.244 | 0.166 | 0.195 | 0.164 | 0.183 | 0.238 | 0.2 |
| LCLC-103H | 0.875 | 0.779 | 0.784 | 0.844 | 0.803 | 0.651 | 0.737 | 0.655 | 0.638 | 0.639 | 0.703 | 0.892 | 0.758 | 0.847 | 0.89 | 0.724 | 0.731 | 0.673 | 0.683 | 0.639 |
| LK-2 | 0.22 | – | 0.338 | 0.209 | 0.185 | 0.753 | 0.969 | 0.65 | 0.666 | 0.899 | 0.629 | 0.454 | 0.695 | 0.489 | 0.546 | 0.854 | 0.727 | 0.666 | 0.452 | 0.567 |
| LOU-NH91 | 0.799 | 0.782 | 0.754 | 0.713 | 0.854 | 0.751 | 0.697 | 0.617 | 0.543 | 0.487 | 0.927 | 0.976 | 0.946 | 0.943 | 1.09 | 0.782 | 0.768 | 0.789 | 0.727 | 0.817 |
| LU99A | 0.351 | 0.349 | 0.355 | 0.294 | 0.28 | 0.569 | 0.595 | 0.567 | 0.584 | 0.497 | 0.297 | 0.206 | 0.288 | 0.228 | 0.165 | 0.558 | 0.57 | 0.505 | 0.481 | 0.578 |
| LXF-289 | 1.07 | 1.3 | 1.16 | 1.36 | 1.47 | 0.761 | 0.75 | 0.685 | 0.667 | 0.754 | 1.04 | 1.04 | 1 | 1.04 | 0.975 | 0.709 | 0.696 | 0.659 | 0.684 | 0.67 |
| NCI-H23 | 0.221 | – | 0.259 | 0.198 | 0.131 | 0.413 | 0.405 | 0.407 | 0.281 | 0.305 | 0.317 | – | 0.342 | 0.248 | 0.377 | 0.405 | 0.409 | 0.396 | 0.375 | 0.385 |
| NCI-H322M | 0.508 | 0.653 | 0.51 | 0.551 | 0.57 | 0.631 | 0.604 | 0.522 | 0.487 | 0.57 | 0.81 | 0.816 | 0.726 | 0.712 | 0.583 | 0.483 | 0.611 | 0.537 | 0.458 | 0.62 |
| NCI-H358 | 0.584 | 0.569 | 0.528 | 0.442 | 0.369 | 0.14 | 0.161 | 0.115 | 0.129 | 0.113 | 0.6 | 0.86 | 0.584 | 0.487 | 0.601 | 0.126 | 0.173 | 0.171 | 0.127 | 0.142 |
| NCI-H441 | 1.36 | 1.05 | 1.23 | 1.2 | 1.18 | 0.466 | 0.43 | 0.289 | 0.38 | 0.477 | 0.468 | 0.582 | 0.674 | 0.412 | 0.401 | 0.482 | 0.452 | 0.464 | 0.37 | 0.499 |
| NCI-H460 | 0.625 | 0.921 | 0.665 | 0.661 | 0.876 | 0.132 | 0.203 | 0.0433 | 0.0407 | 0.0579 | 0.505 | 0.447 | 0.438 | 0.413 | 0.557 | 0.152 | 0.203 | 0.11 | 0.0864 | 0.0963 |
| NCI-H522 | 0.813 | 0.805 | 0.83 | 0.861 | 0.595 | 0.739 | 0.705 | 0.652 | 0.629 | 0.751 | 0.583 | 0.665 | 0.624 | 0.719 | 0.508 | 0.797 | 0.848 | 0.761 | 0.692 | 0.795 |
| NCI-H596 | 1 | 1.02 | 1.09 | 1.05 | 1.11 | 0.797 | 0.804 | 0.825 | 0.555 | 0.657 | 0.661 | 0.775 | 0.67 | 0.745 | 0.881 | 0.821 | 0.804 | 0.724 | 0.788 | 0.647 |
| NCI-H647 | 0.415 | 0.366 | 0.465 | 0.593 | 0.587 | 0.494 | 0.38 | 0.261 | 0.303 | 0.286 | 0.567 | 0.617 | 0.617 | 0.479 | 0.164 | 0.501 | 0.543 | 0.469 | 0.238 | 0.448 |
| NCI-H650 | 1.1 | 1.03 | 0.968 | 0.992 | 0.974 | 1.11 | 0.826 | 0.597 | 0.587 | 0.588 | 0.365 | 0.433 | 0.352 | 0.307 | 0.366 | 0.95 | 0.996 | 0.985 | 0.814 | 0.856 |
| NCI-H727 | 0.595 | 0.612 | 0.841 | 0.47 | 0.443 | – | 0.392 | 0.386 | 0.461 | 0.423 | 0.728 | 0.6 | 0.768 | 0.602 | 0.561 | 0.346 | 0.325 | 0.386 | 0.323 | 0.379 |
| NCI-H838 | 0.984 | 1.05 | 0.907 | 0.915 | 1.06 | 0.347 | 0.231 | 0.213 | 0.17 | 0.188 | 0.788 | 0.811 | 0.829 | 0.749 | 0.529 | 0.574 | 0.481 | 0.455 | 0.412 | 0.648 |
| NCI-H1355 | 0.776 | 0.912 | 0.845 | 0.66 | 0.799 | 0.322 | 0.433 | 0.434 | 0.392 | 0.398 | 0.681 | 0.747 | 0.692 | 0.755 | 0.745 | 0.435 | 0.395 | 0.426 | 0.331 | 0.451 |
| NCI-H1395 | 0.402 | – | 0.419 | 0.434 | 0.393 | 1.18 | 0.986 | 0.849 | 0.622 | 0.717 | 0.427 | – | 0.478 | 0.426 | 0.425 | 1.05 | 0.993 | 1.11 | – | 0.96 |
| NCI-H1437 | 1.06 | 1.18 | 1.11 | 1.1 | 1.06 | 0.599 | 0.556 | 0.517 | 0.435 | 0.403 | 0.637 | 0.641 | 0.607 | 0.625 | 0.549 | 0.539 | 0.42 | 0.421 | 0.423 | 0.438 |
| NCI-H1648 | 0.722 | – | 0.652 | 0.641 | 0.576 | 0.511 | 0.431 | 0.576 | 0.779 | 0.705 | 0.572 | – | 0.955 | 0.639 | 0.764 | 0.555 | – | – | 0.391 | 0.519 |
| NCI-H1651 | 0.424 | 0.598 | 0.532 | 0.308 | 0.477 | 0.925 | 0.891 | 0.828 | 0.623 | 0.81 | 0.182 | 0.208 | 0.182 | 0.167 | 0.199 | 0.884 | 0.855 | 0.846 | 0.791 | 0.797 |
| NCI-H1666 | 0.908 | 1.06 | 0.909 | 0.757 | 0.917 | 0.95 | 1.09 | 0.851 | 0.582 | 0.528 | 0.763 | 0.797 | 0.737 | 0.71 | 0.728 | 0.892 | 0.825 | 0.877 | 0.879 | 0.792 |
| NCI-H1734 | 0.529 | 0.42 | 0.549 | 0.498 | 0.483 | 0.676 | 0.729 | 0.69 | 0.603 | 0.467 | 0.538 | 0.582 | 0.662 | 0.556 | 0.461 | 0.581 | 0.668 | 0.604 | 0.65 | 0.709 |
| NCI-H1755 | 0.503 | 0.431 | 0.472 | 0.383 | 0.453 | 0.832 | 0.772 | 0.71 | 0.749 | 0.734 | 0.851 | 0.914 | 0.866 | 0.833 | 0.93 | 0.828 | 0.769 | 0.759 | 0.68 | 0.799 |
| NCI-H1792 | 0.729 | 0.803 | 0.826 | 0.636 | 0.77 | 0.425 | 0.47 | 0.401 | 0.354 | 0.302 | 0.533 | 0.392 | 0.484 | 0.383 | 0.495 | 0.585 | 0.389 | 0.403 | – | 0.522 |
